# Data reported in PubChem BioAssay (NCI).
#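 A five-concentration, 48-hour dose response in 96-well plates underlies each endpoint, interpolated linearly between surrounding concentrations. The concentration for 50% growth inhibition is given as GI50. TGI: concentration producing complete growth inhibition.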
# What was measured:
# Test in all cases: growth of human tumour cells (NCI), 48 h
# EKVX NSCLC = system: EKVX NSCLC
# HCT-15 colon = system: HCT-15 colon
# KM12 colon = system: KM12 colon
# MDA-MB-435 = system: MDA-MB-435
# SF-268 CNS = system: SF-268 CNS
# SW-620 colon = system: SW-620 colon
# UO-31 renal = system: UO-31 renal
# NCI-H23 lung = system: NCI-H23 lung
# NCI/ADR-RES ovarian = system: NCI/ADR-RES ovarian
Structure (SMILES),TGI (EKVX NSCLC) [µM],TGI (HCT-15 colon) [µM],TGI (KM12 colon) [µM],TGI (MDA-MB-435) [µM],TGI (SF-268 CNS) [µM],TGI (SW-620 colon) [µM],TGI (UO-31 renal) [µM],TGI (NCI-H23 lung) [µM],TGI (NCI/ADR-RES ovarian) [µM],GI50 (MDA-MB-435) [µM],GI50 (NCI-H23 lung) [µM],GI50 (UO-31 renal) [µM]
N#Cc1nc(Cc2cccs2)oc1N,> 100,> 100,> 100,> 100,> 100,> 100,> 100,–,–,–,–,–
Oc1cc(Br)cc2cc(Br)cnc12,37.4,> 100,> 100,> 100,> 100,> 100,29.4,46.1,> 100,–,–,–
Cn1c(=O)n2n(c1=O)C1C(=CC2)C2C=CC1n1c(=O)n(C)c(=O)n12 (centres undefined),> 100,> 100,> 100,> 100,> 100,> 100,> 100,> 100,> 100,–,–,–
Cc1ccc(Oc2cc(C)ccc2P(=O)(O)O)cc1,> 100,> 100,> 100,> 100,> 100,> 100,> 100,> 100,–,–,–,–
OCC(CO)CC1COc2ccccc2O1 (centres undefined),> 10,> 10,> 10,> 10,> 10,> 10,> 10,> 10,> 10,–,–,–
NC(Cc1ccccc1)C(=O)O (centres undefined),> 100,> 100,> 100,> 100,> 100,> 100,> 100,> 100,> 100,–,–,–
CC(C)(CN1CCCCC1)C(=O)CC(SCCS(=O)(=O)O)c1ccc(Cl)c(Cl)c1 (centres undefined),18,5.35,23,4.57,15.1,4.61,16.4,15.8,22.9,–,–,–
Brc1ccc2[nH]cc(-c3nc(-c4c[nH]c5ccncc45)cs3)c2c1,–,–,–,3.06,–,–,2.8,3.17,–,1.66,1.64,1.47
Cc1ccc2c(=O)c3c(O)c4c(cc3n(C)c2c1)OC(C)(C)C=C4,> 10,> 10,> 10,> 10,> 10,> 10,–,> 10,> 10,–,–,–
